Data reported in the Kinase Knowledgebase extract (Sharma et al. 2016).

molecular target: PIK3CG (human) (UniProt P48736); assay: Inhibition of PIK3CG Kinase Activity
Sequence (P48736 whole entry, looked up): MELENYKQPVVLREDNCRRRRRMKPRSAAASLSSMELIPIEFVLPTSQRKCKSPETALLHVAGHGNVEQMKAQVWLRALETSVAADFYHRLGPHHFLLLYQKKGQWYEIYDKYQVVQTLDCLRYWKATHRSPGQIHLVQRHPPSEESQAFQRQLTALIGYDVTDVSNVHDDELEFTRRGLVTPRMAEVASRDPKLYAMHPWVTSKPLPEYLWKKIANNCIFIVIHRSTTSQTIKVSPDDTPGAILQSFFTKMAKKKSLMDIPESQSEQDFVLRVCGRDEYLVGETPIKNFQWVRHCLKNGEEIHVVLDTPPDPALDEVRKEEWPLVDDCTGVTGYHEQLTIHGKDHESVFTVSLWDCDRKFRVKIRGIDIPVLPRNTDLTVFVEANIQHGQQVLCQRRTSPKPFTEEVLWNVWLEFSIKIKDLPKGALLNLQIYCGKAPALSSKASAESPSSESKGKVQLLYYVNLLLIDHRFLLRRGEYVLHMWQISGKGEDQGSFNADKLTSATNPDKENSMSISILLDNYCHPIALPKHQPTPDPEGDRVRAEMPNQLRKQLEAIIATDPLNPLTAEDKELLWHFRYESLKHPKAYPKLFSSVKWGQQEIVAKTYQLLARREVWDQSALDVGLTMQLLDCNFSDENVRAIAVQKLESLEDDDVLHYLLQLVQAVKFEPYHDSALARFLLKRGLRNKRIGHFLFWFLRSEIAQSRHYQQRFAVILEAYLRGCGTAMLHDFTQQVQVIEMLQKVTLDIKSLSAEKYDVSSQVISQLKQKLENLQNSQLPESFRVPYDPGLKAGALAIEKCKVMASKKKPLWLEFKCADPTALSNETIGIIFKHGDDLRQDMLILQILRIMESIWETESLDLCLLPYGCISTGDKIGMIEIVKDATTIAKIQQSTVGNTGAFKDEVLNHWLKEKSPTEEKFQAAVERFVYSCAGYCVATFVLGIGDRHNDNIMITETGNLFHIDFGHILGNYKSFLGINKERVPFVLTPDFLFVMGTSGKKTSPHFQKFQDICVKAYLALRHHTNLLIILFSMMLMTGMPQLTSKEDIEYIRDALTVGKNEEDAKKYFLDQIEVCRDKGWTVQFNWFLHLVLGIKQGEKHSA

| Compound | IC50 [nM] |
| --- | --- |
| CC(=O)Nc1nc2c(s1)-c1c(c(C3CC3)nn1C1CCN(C(=O)C3CCN(CC4CCCC4)CC3)CC1)CC2 | < 600 |
| CC(=O)Nc1nc2c(s1)-c1c(c(C3CC3)nn1-c1ccc(C(=O)NC3CCN(C4CCOCC4)CC3)c(Cl)c1)CC2 | < 600 |
| CC(=O)Nc1nc2c(s1)-c1c(c(C3(C)CC3)nn1-c1ccc(C(=O)NC3CCN(C(C)C)CC3)cc1Cl)CC2 | < 600 |
| CC(=O)Nc1nc2c(s1)-c1c(c(C3CC3)nn1-c1ccc(C(=O)N[C@H]3CC[C@@H](N4CCOCC4)CC3)c(C)c1)CC2 | < 600 |
| CC(=O)Nc1nc2c(s1)-c1c(c(C3CC3)nn1-c1ccc(C(=O)N(C)C)cc1Cl)CC2 | < 600 |
| CC(=O)Nc1nc2c(s1)-c1c(c(C3CC3)nn1-c1ccc(C(=O)N[C@H]3CC[C@@H](N(C)CC4CC4)CC3)cc1C)CC2 | < 600 |
| CC(=O)Nc1nc2c(s1)-c1c(c(C3CC3)nn1-c1ccc(C(=O)N[C@H]3CC[C@@H](N4CCOCC4)CC3)c(F)c1)CC2 | < 600 |
| CCCN1CC[C@@H](NC(=O)c2ccc(-n3nc(C4CC4)c4c3-c3sc(NC(C)=O)nc3CC4)cc2F)C1 | < 600 |
| CC(=O)Nc1nc2c(s1)-c1c(c(C3CC3)nn1-c1ccc(C(=O)N[C@@H]3CCN(C4CCCC4)C3)cc1C)CC2 | < 600 |
| CC(=O)Nc1nc2c(s1)-c1c(c(C3CC3)nn1-c1ccc(CC(=O)N[C@H]3CC[C@@H](N4CCCC4)CC3)cc1Cl)CC2 | < 600 |
| CC(=O)Nc1nc2c(s1)-c1c(c(C3CC3)nn1-c1ccc(C(=O)NCC3CCN(C4CCCC4)CC3)cc1Cl)CC2 | < 600 |
| CC(=O)Nc1nc2c(s1)-c1c(c(C3CC3)nn1-c1ccc(C(=O)NC[C@@H]3CCCN3)c(Cl)c1)CC2 | < 600 |
| CC(=O)Nc1nc2c(s1)-c1c(c(C3CC3)nn1-c1ccc(C(=O)N(C)C3CCN(CC4CCCC4)CC3)c(Cl)c1)CC2 | < 600 |
| CC(=O)Nc1nc2c(s1)-c1c(c(C3(C)CC3)nn1-c1ccc(C(=O)N[C@H]3CC[C@@H](N4CCCC4)CC3)cc1Cl)CC2 | < 600 |
| CC(=O)Nc1nc2c(s1)-c1c(c(C3CC3)nn1-c1ccc(C(=O)N[C@@H]3CN4CCC3CC4)c(Cl)c1)CC2 | < 600 |

Next, values leading:

| IC50 [nM] | Compound |
| --- | --- |
| < 600 | CC(=O)Nc1nc2c(s1)-c1c(c(C3CC3)nn1-c1ccc(C(=O)N(C)C3CCC(N(C)CC4CCCC4)CC3)c(F)c1)CC2 (centres undefined) |
| < 600 | COc1cc(-n2nc(C3CC3)c3c2-c2sc(NC(C)=O)nc2CC3)ccc1C(=O)NC1CCN(C2CCCC2)CC1 |
| < 600 | CC(=O)Nc1nc2c(s1)-c1c(c(C3CC3)nn1-c1ccc(C(=O)N[C@@H]3CCN(CC4CCCC4)C3)c(C)c1)CC2 |
| < 600 | CCN(C(=O)c1ccc(-n2nc(C3CC3)c3c2-c2sc(NC(C)=O)nc2CC3)cc1F)[C@H]1CC[C@@H](N2CCCC2)CC1 |
| < 600 | CC(=O)Nc1nc2c(s1)-c1c(c(C3CC3)nn1-c1ccc(C(=O)NC3CCN(C4CCOCC4)CC3)cc1F)CC2 |
| < 600 | CC(=O)Nc1nc2c(s1)-c1c(c(C3CC3)nn1-c1ccc(C(=O)N(C)CC3CCN(C4CCCC4)CC3)cc1Cl)CC2 |
| < 600 | CC(=O)Nc1nc2c(s1)-c1c(c(C3(C)CC3)nn1-c1ccccc1Cl)CC2 |
| < 600 | CC(=O)Nc1nc2c(s1)-c1c(c(C3CC3)nn1-c1ccc(C(=O)NC[C@@H]3CCNC3)c(Cl)c1)CC2 |
| < 600 | CC(=O)Nc1nc2c(s1)-c1c(c(C3CCCC3)nn1-c1ccc(C(=O)NC3CCN(C4CCCC4)CC3)cc1Cl)CC2 |
| < 600 | CC(=O)Nc1nc2c(s1)-c1c(c(C3CC3)nn1-c1ccc(C(=O)N[C@@H]3CCN(C4CCCC4)C3)cc1Cl)CC2 |
| < 600 | CC(=O)Nc1nc2c(s1)-c1c(c(C3CC3)nn1-c1ccc(CC(=O)N(C)[C@H]3CC[C@@H](N4CCCC4)CC3)cc1Cl)CC2 |
| < 600 | CC(=O)Nc1nc2c(s1)-c1c(c(C3CC3)nn1-c1ccc(C(=O)NC3CCN(C4CCCC4)CC3)cc1Cl)CC2 |
| < 600 | CC(=O)Nc1nc2c(s1)-c1c(c(C3CC3)nn1-c1ccc(C(=O)N[C@H]3CC[C@@H](N(C)CC4CC4)CC3)cc1Cl)CC2 |
| < 600 | CC(=O)Nc1nc2c(s1)-c1c(c(C3CC3)nn1-c1ccc(C(N)=O)cc1Cl)CC2 |
